Data published in patent US7635779B2, “Oxy substituted flavones as antihyperglycemic and antidyslipidemic agents” (Council of Scientific & Industrial Research, priority 2004, dated 2009).
Like-named read-outs stand apart in the source and are kept apart here.

What was measured:
sucrose loaded rat = assay: Sucrose loaded rat model (SLM), antihyperglycemic activity; format: in vivo; conditions: for % Fall in blood glucose levels, SLM: 100 mg/kg oral, AUC vs control; for inhibition in vivo at 100 mg/kg: Rattus norvegicus, po, 2 h, read-out: % Fall in blood glucose levels, SLM
Protocol: Male albino rats of Charles Foster/Wistar strain of average body weight 160±20 g were selected for this study. The blood glucose level of each animal was checked by glucometer using glucostrips (Boehringer Mannheim) after 16 h starvation. Animals showing blood glucose levels between 3.33 to 4.44 mM (60 to 80 mg/dl) were divided into groups of five to six animals in each. Animals of experimental group were administered suspension of the desired synthetic compound orally (made in 1.0% gum acacia) at a dose of 100-mg/kg-body weight. Animals of control group were given an equal amount of 1.0% gum acacia. A sucrose load (10.0 g/kg) was given to each animal orally exactly after 30 min post administration of the test sample/vehicle. Blood glucose profile of each rat was again determined at 30, 60, 90 and 120 min post administration of sucrose by glucometer. Food but not water was withheld from the cages during the course of experimentation. Quantitative glucose tolerance of each animal was calculated by Area Under Curve (AUC) method (Prism Software). Comparing the AUC of experimental and control groups determined the percentage antihyperglycemic activity. Statistical comparison was made by Dunnett's test.

[1] = test system: triton WR-1339 induced hyperlipidemic rats; assay: Triton model, antidyslipidemic activity; format: in vivo, rat; conditions: 100 mg/kg oral, plasma after 18 h; for inhibition in vivo at 100 mg/kg: Rattus norvegicus
Protocol: Male Charles foster rats weighing 200-225 g were divided into control, hyperlipidemic and hyperlipidemic plus drug treated groups containing six animals in each group. Hyperlipidemia was induced by administration of triton WR-1339 (200 mg/kg i.p.). All animals were maintained on a special pellet diet and water ad libitum. Compounds and standard drug were macerated with 0.2% aqueous gum acacia suspension. The suspension was fed orally at the dose of 100 mg/kg simultaneously with triton in drug treated group. The animals of control group received the same amount of gum acacia by similar route of administration. At the end of the experiment, after 18 h, blood was withdrawn from retro orbital plexus and plasma was used for the assay of total cholesterol, phospholipid and triglycerides.
Cholesterol was estimated using the kit provided by Roche Diagnostics. Cholesterol esters are enzymatically hydrolyzed by cholesterol esterase (CE) to cholesterol and free fatty acids. Free cholesterol, including that originally present, is then oxidized by cholesterol oxidase (CO) to cholest-4-en-3-one and hydrogen peroxide. The hydrogen peroxide combines with hydroxy benzoic acid (HBA) and 4-aminoantipyrine (4AAA) in the presence of peroxidase (POD) to form a chromophore (quinoneimine dye), which may be quantitated at 500-505 nm. The intensity of red colour formed is directly proportional to the concentration of total cholesterol in the specimen and measured spectrophotometrically (Searcy, C. L. Diagnostic Biochemistry, 1969, McGraw Hill, New York; Ellefson, R. D.; Caraway, W. T. Fundamentals of clinical chemistry, 1976, Ed Tietz N W, 506-515.)
Triglycerides were estimated using the kit provided by Roche Diagnostics. Lipoprotein lipase hydrolyses triglycerides to yield glycerol and fatty acids. Glycerol kinase converts glycerol to glycerol-3-phosphate, which is oxidized by glycerol phosphate oxidase to dihydroxy acetone phosphate and hydrogen peroxide. In the presence of peroxidase, hydrogen peroxide oxidatively couples with 4-aminoantipyrine and 4-chloro phenol to produce red quinonimine dye. The intensity of red colour formed is directly proportional to the concentration of triglycerides in the specimen and is measured by photometrically (Wahlefeld, A. W.; Bergmeyer, H. U. Ed. Methods of enzymatic analysis, 2nd English edition, New York, N.Y., Academic press inc, 1831-1840.).
Serum (0.2 mL) and perchloric acid (1.0 mL) was digested at 180° C. for 1-1.5 h till the solution became colorless. The liberated inorganic phosphate (Pi) was measured by the method of Fiske and Subbarow (Fiske, C. H.; Subbarow, V. J. Biol. Chem. 1925, 66, 375.). 1 mL of 2.5% ammonium molybdate (prepared in 5 N sulphuric acid) and 0.5 mL reducing agent (4-amino naphthol sulphonic acid, 0.2%), sodium metabisulphite (2.4% w/v in distilled water) was added to the above tubes and mixed well. The reaction mixture was […] with 2.5 mL of triple distilled water and kept at 60° C. in water bath for 20 min. For standard, an appropriate amount of potassium dihydrogen phosphate dissolved in triple distilled water containing 2-10 μg phosphorous (Pi) was run simultaneously with the experiment tubes. The optical density of the blue colour was recorded at 620 nm against reagent blank. The values of Pi were converted into phospholipid by multiplying with 25 (a constant calibrated from Pi value of lecithin).

[2] = test system: streptozotocin-induced diabetic rats; assay: Sucrose-challenged streptozotocin-induced diabetic rats (STZ-S); format: in vivo, rat; conditions: 100 mg/kg oral
Protocol: Male albino rats of Sprague Dawley strain of body weight 160+20 g were selected for this study. Streptozotocin (Sigma, USA) was dissolved in 100 mM citrate buffer pH 4.5 and calculated amount of the fresh solution was injected to overnight fasted rats (45 mg/kg) intraperitoneally. Blood glucose level was checked 48 h later by glucostrips and animals showing blood glucose values between 144 to 270 mg/dl (8 to 15 mM) were included in the experiment and termed diabetic. The diabetic animals were divided into groups consisting of five to six animals in each group. Animals of experimental groups were administered suspension of the desired test samples orally (made in 1.0% gum acacia) at a dose of 100-mg/kg-body weight. Animals of control group were given an equal amount of 1.0% gum acacia. A sucrose load of 2.5-g/kg body weight was given after 30 minutes of compound administration. After 30 minutes of post sucrose load blood glucose level was again checked by glucostrips at 30, 60, 90, 120, 180, 240, 300 min and at 24 h, respectively. Animals not found diabetic after 24 hours post treatment of the test sample were not considered and omitted from the calculations and termed as non-responders. […] Food but not water was withheld from the cages during the experimentation. Comparing the AUC of experimental and control groups determined the percent antihyperglycemic activity. Statistical comparison between groups was made by Student's ‘t’ test.
As depicted in the FIGURE, a dose response curve of 34 was obtained by administering different doses of test compound to streptozotocin-induced diabetic rats (Table 6). […]

[3] = phospholipid, read-out: % Fall in lipid levels (Triton model) PL
[4] = total cholesterol, read-out: % Fall in lipid levels (Triton model) TC
[5] = triglycerides, read-out: % Fall in lipid levels (Triton model) TG

SMILES | % Fall in blood glucose levels, SLM (sucrose loaded rat) | inhibition in vivo at 100 mg/kg [1, 3] [%] | inhibition in vivo at 100 mg/kg [1, 4] [%] | inhibition in vivo at 100 mg/kg [1, 5] [%] | % Fall in lipid levels (Triton model) PL ([1]; phospholipid) [%] | % Fall in lipid levels (Triton model) TC ([1]; total cholesterol) [%] | % Fall in lipid levels (Triton model) TG ([1]; triglycerides) [%] | further results
COc1cc(-c2cc(=O)c3ccc(OCC(O)CNC(C)(C)C)cc3o2)cc(OC)c1OC (stereo not shown) [Compound 40, 7-(3-tert-Butylamino-2-hydroxy-propoxy)-3′,4′,5′-trimethoxy-flavone] | NIL | 26 | 24 | 28 |  |  |  | melting point: 119 to 120 °C
COc1ccc(-c2cc(=O)c3ccc(OCCCOc4ccc(C=C5SC(=O)NC5=O)cc4)cc3o2)cc1OC [Compound 67, 3′,4′-Dimethoxy-7-{3-[4-(thiazolidin-2,4-dione-5-ylidinemethyl)-phenoxy]-propoxy}-flavone] | 13.60% |  |  |  | 14 | 28 | 21 | % Fall in blood glucose levels, STZ-S 5 h [2]: 18.7%; % Fall in blood glucose levels, STZ-S 24 h [2]: 13.6%
CC(C)(C)NCC(O)COc1ccc2oc(-c3ccc(O)c(O)c3)cc(=O)c2c1 (stereo not shown) [Compound 52, 6-(3-tert-Butylamino-2-hydroxy-propoxy)-3′,4′-dihydroxy-flavone] |  | 23 | 24 | 25 |  |  |  | inhibition in vivo at 100 mg/kg (sucrose loaded rat): 4.96%
COc1cc(OC)cc(-c2cc(=O)c3ccc(OCCCOc4ccc(C=C5SC(=O)NC5=O)cc4)cc3o2)c1 [Compound 66, 3′,5′-Dimethoxy-7-{3-[4-(thiazolidin-2,4-dione-5-ylidinemethyl)-phenoxy]-propoxy}-flavone] | 28.80% |  |  |  |  |  |  | % Fall in blood glucose levels, STZ-S 5 h [2]: 18.9%; % Fall in blood glucose levels, STZ-S 24 h [2]: 20.2%
O=C1NC(=O)C(=Cc2ccc(OCCOc3ccc4c(=O)cc(-c5cc(OCc6ccccc6)cc(OCc6ccccc6)c5)oc4c3)cc2)S1 [Compound 62, 3′,5′-Dibenzyloxy-7-{2-[4-(thiazolidin-2,4-dione-5-ylidinemethyl)-phenoxy]-ethoxy}-flavone] | NIL |  |  |  | 15 | 15 | 18 | 
COc1ccc(-c2cc(=O)c3ccc(OCC(O)CNC(C)C)cc3o2)cc1OC (stereo not shown) [Compound 46, 3′,4′-Dimethoxy-7-[2-hydroxy-3-iso-propylamino-propoxy]-flavone] |  |  |  |  |  |  |  | inhibition in vivo at 100 mg/kg (sucrose loaded rat): 23.9%; melting point: 144 to 145 °C
CC(C)(C)NCC(O)COc1ccc2c(=O)cc(-c3ccc(O)c(O)c3)oc2c1 (stereo not shown) [Compound 50, 7-(3-tert-Butylamino-2-hydroxy-propoxy)-3′,4′-dihydroxy-flavone] | NIL | 23 | 21 | 25 |  |  |  | 
CC(C)NCC(O)COc1ccc2c(=O)cc(-c3ccc(O)c(O)c3)oc2c1 (stereo not shown) [Compound 51, 3′,4′-Dihydroxy-7-(2-hydroxy-3-iso-propylamino-propoxy)-flavone] | NIL | 13 | 15 | 19 |  |  |  | 
O=C1NC(=O)C(=Cc2ccc(OCCOc3ccc4c(=O)cc(-c5ccc(OCc6ccccc6)c(OCc6ccccc6)c5)oc4c3)cc2)S1 [Compound 63, 3′,4′-Dibenzyloxy-7-{2-[4-(thiazolidin-2,4-dione-5-ylidinemethyl)-phenoxy]-ethoxy}-flavone] | 26.0% |  |  |  |  |  |  | 
COc1cc(-c2cc(=O)c3ccc(OCCOc4ccc(C=C5SC(=O)NC5=O)cc4)cc3o2)cc(OC)c1OC [Compound 64, 7-{2-[4-(thiazolidin-2,4-dione-5-ylidinemethyl)-phenoxy]-ethoxy}-3′,4′,5′-trimethoxy-flavone] | 9.59% |  |  |  | 25 | 20 | 26 | 
